Test results reported in patent US20120202819A1, “COMBINATION THERAPY USING A BETA 3 […] RECEPTOR AGONISTS AND AN […] AGENT” (Merck Sharp & Dohme Corporation, priority 2009, published 2012).
Like-named read-outs stand apart in the source and are kept apart here.

What was measured:
muscarinic receptor M3 [1] = biological target: T1, muscarinic receptor M3 (Homo sapiens, UniProt P20309); settings: cited from earlier work
muscarinic receptor M1 [2] = biological target: T2, muscarinic receptor M1 (Homo sapiens, UniProt P11229); settings: read-out: Ki (nM) M1, cited from earlier work
T2 sequence (P11229 1-460): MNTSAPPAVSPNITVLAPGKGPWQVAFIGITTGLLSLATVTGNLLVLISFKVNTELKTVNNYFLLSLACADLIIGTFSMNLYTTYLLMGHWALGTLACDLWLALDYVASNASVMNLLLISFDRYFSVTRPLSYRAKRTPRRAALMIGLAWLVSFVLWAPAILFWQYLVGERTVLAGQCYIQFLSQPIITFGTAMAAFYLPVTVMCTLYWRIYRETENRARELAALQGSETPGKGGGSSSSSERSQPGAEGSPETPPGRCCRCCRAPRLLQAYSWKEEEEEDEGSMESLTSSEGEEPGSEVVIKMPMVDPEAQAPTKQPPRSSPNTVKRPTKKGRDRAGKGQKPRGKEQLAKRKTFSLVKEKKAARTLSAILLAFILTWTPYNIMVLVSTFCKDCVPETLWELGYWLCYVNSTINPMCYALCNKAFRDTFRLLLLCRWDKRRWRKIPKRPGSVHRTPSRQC

muscarinic receptor M4 = biological target: T3, muscarinic receptor M4 (Homo sapiens, UniProt P08173); settings: Ohtake et al.; cited from earlier work
T3 sequence (P08173 1-479): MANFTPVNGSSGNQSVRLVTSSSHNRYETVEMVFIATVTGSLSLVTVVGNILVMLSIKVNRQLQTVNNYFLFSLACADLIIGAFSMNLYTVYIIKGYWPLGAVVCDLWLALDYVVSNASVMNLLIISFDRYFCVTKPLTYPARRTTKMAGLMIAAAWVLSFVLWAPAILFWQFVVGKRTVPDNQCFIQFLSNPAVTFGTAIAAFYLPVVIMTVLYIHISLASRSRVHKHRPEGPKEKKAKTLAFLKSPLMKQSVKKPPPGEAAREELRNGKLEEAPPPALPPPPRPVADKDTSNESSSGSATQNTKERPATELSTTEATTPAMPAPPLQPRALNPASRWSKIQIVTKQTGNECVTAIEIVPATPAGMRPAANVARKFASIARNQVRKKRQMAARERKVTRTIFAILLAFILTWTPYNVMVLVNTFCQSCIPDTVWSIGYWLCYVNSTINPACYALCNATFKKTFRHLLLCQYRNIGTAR

muscarinic receptor M2 [3] = biological target: T4, muscarinic receptor M2 (Homo sapiens, UniProt P08172); settings: Ohtake et al.; cited from earlier work
T4 sequence (P08172 1-466): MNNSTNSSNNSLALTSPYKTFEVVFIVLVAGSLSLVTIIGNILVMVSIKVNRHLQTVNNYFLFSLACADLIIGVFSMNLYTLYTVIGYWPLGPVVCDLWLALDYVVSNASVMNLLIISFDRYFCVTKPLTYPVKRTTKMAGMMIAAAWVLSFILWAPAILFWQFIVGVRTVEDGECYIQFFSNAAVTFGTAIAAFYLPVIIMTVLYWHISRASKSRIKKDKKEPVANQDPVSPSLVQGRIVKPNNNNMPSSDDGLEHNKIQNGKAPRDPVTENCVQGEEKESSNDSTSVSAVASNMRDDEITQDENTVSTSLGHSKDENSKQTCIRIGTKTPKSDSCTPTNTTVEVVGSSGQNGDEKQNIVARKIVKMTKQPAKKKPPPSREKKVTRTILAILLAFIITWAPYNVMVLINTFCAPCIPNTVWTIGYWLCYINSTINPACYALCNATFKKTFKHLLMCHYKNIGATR

muscarinic receptor M1 [4] = biological target: T2, muscarinic receptor M1; settings: Hegde et al.; cited from earlier work
muscarinic receptor M3 [5] = biological target: T1, muscarinic receptor M3; settings: Hegde et al.; cited from earlier work
muscarinic receptor M2 [6] = biological target: T4, muscarinic receptor M2; settings: Hegde et al.; cited from earlier work
[7] = system: EFS-induced isolated detrusor muscle contractions; test: EFS-induced contraction of isolated rat detrusor muscle strips, with isobologram analysis; design: species or system Sprague-Dawley rats; settings: single compound, rat bladder strips, EFS
Protocol: Male adult Sprague-Dawley rats were used. After euthanizing using CO2 gas, a whole bladder was removed. Longitudinal strips (about 6 mm×3 mm) of the extratrigonal portion of the detrusor muscle were prepared. […] The strips were tied at one end to the organ bath, and connected at the other end to an isometric transducer (AD Instruments) under a resting tension of 10 mN. The responses of the preparations were recorded at a sampling rate of 10 Hz by a multiple channel data acquisition system (PowerLab, AD Instruments), and measured with an analysis software (Chart, AD Instruments). After the equilibration period for at least 60 min, each tissue strip was challenged to electrical field stimulation (EFS) at 60 Hz; duration, 0.3 ms; 3 sec; 90 V to induce contractions. Upon obtaining stable contractions with EFS, compound solution (25 μL) was applied into organ bath in a cumulative manner. After 15 min of each compound treatment, EFS was applied.
Isobologram Analysis was used to evaluate the synergic effect of a combination therapy. Isobologram Analysis provides a visual assessment of the interaction of two different agents using independent statistical analysis. The statistical analysis can be accomplished from calculations of certain potency indices from single treatment of each compound and fixed-ratio combinations for the same effect.
Isobologram for some particular effect (e.g., 50% of the maximum) in which the dose of active agent A alone is A=20 and active agent B alone is B=100. The straight line connecting these intercept points (additivity line) is the locus of all dose pairs that, based on these potencies, should give the same effect, An actual dose pair such as point Q attains this effect with lesser quantities and is synergistic (or super-additive), while the dose pair denoted by point R means greater quantities are required and is therefore sub-additive.

[8] = system: distention-induced rhythmic bladder contraction; test: Distention-induced rhythmic bladder contraction in anesthetized female rats; assay type: in vivo, SD rats; settings: iv, single dosing, urethane-anesthetized female rats
Protocol: • OXY, 0.01, 0.03, 0.1 mg/kg, iv; […].
Next, combination dosing regimens shown below in Table 7 were conducted to compose an isobologram. There were 9 groups in total. ID20 values of OXY and CL was calculated in each combination rate.

bladder capacity = test: Bladder capacity (cystometry) in anesthetized rhesus monkeys; assay type: in vivo, rhesus monkeys (Macaca mulatta); settings: mean of 4-6 animals
Source text: Adult female rhesus monkeys (Macaca mulatta) weighed 5.3-6.2 kg (4-7 year-old) were used. The subjects were either paired or individually housed on a 12-h light/12-h dark cycle (lights on at 7:00 AM). Their diet consisted of 2050 Teklad (Harlan Laboratories, Indianapolis, Ind.) and fresh fruit or vegetable. Water was freely available. All animals were observed daily by a veterinary technician and caretakers for signs of ill health. Subjects were repeatedly used with >13-day resting period. Monkeys were anesthetized with an intramuscular injection of either Telazol (3-5 mg/kg) or ketamine (10-20 mg/kg) followed by intravenous constant rate infusion with ketamine (0.2-0,8 mg/kg/min) using a syringe pump (552222, Harvard Apparatus, Holliston, Mass.). Animals were placed in a supine position and a triple lumen balloon transurethral catheter (7.4 Fr, Cook Medical, Bloomington, Ind.) was inserted into the bladder and the balloon was inflated with 1 mL of water to secure the tip of catheter at the bladder base. The catheter was connected with an infusion pump (Gemini PC-2TX, ALARIS Medical Systems, San Diego, Calif.) for bladder filling and a pressure transducer for intravesical pressure monitoring. Intravesical pressure was continuously recorded using a multiple channel data acquisition system (Power lab, AD Instruments, Biopac systems, Colorado Springs, Colo.) at a sampling rate of 20 Hz. After confirming bladder emptiness by an ultrasonography (Logiq e vet, GE Medical Systems, Waukesha, Wis., FIG. 1A), saline was intravesically infused at 15 mL/min. When the steep rise in pressure indicative of the micturition reflex was observed, intravesical infusion was stopped and the bladder was manually emptied with a 60 ml syringe.
After two baseline cystometry readings, drug was intravenously administered three times using a rising dose paradigm with a cystometry performed 10 min after each dose. Bladder capacity was measured for each cystometry and % change from the baseline capacity was calculated. As used herein, the term “baseline capacity” or “baseline” means the average bladder capacity from two pre-dose measurements.
The reported results are mean values of % change from baseline in 4-6 animals.

T1 sequence (P20309 whole entry): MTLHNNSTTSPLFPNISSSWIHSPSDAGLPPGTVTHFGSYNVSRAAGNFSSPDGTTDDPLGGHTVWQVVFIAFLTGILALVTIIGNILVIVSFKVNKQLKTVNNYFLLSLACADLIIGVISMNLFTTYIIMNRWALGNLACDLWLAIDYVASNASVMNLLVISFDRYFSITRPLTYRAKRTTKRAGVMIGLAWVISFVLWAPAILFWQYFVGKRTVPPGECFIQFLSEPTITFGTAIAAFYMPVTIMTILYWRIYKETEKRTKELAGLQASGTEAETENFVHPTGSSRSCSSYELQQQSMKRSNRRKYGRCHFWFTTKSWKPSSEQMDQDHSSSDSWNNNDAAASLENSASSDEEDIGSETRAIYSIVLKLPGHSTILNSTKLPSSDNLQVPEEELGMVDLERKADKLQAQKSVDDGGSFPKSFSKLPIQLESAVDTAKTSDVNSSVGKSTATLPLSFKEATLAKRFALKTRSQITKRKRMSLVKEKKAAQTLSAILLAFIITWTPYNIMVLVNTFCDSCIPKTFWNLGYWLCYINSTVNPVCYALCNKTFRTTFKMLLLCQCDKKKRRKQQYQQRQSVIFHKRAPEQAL

Row | SMILES | Ki (muscarinic receptor M3 [1]; Ohtake et al.) [nM] | Ki (muscarinic receptor M4) [nM] | Ki (muscarinic receptor M2 [3]) [nM] | IC25 (concentration which induced 25% inhibition of detrusor contraction) [7] [µM] | ID20 (dose decreasing amplitude by 20%) [8] [MPK] | Ki (muscarinic receptor M1 [2]) [nM] | further results
1 | CCCOC(C(=O)OC1CCN(C)CC1)(c1ccccc1)c1ccccc1 [Propiverine] | 350 ± 53 | 900 ± 200 | 1400 ± 220 | – | – | – | M2/M3 ratio (muscarinic receptor M3 [1]; Ohtake et al., ratio of Ki M2 to Ki M3): 4; Ki (muscarinic receptor M1 [2]; Ohtake et al.): 490 ± 110 nM
2 | O=C(O[C@H]1C[C@H]2CC[C@@H](C1)[N+]21CCCC1)C(O)(c1ccccc1)c1ccccc1 [Trospium] | – | – | – | – | – | – | Ki (muscarinic receptor M1 [4]): 0.75 nM; Ki (muscarinic receptor M3 [5]): 0.5 nM; M2/M3 ratio (muscarinic receptor M3 [5]): 1; Ki (muscarinic receptor M2 [6]): 0.65 nM
3 | C[C@H](Cc1ccc2c(c1)OC(C(=O)[O-])(C(=O)[O-])O2)NC[C@H](O)c1cccc(Cl)c1.[Na+].[Na+] [CL316243, disodium (R,R)-5-(2-((2-(3-ehlorophenyl)-2-hydroxyethyl)-amino)propyl)-1,3-benzodioxole-2,3-dicarboxylate] | – | – | – | 0.00286 | 0.024 | – | –
4 | Cc1ccc(O)c([C@@H](CCN(C(C)C)C(C)C)c2ccccc2)c1 [Tolterodine, 2-[(1S)-3-(diisopropylamino)-1-phenylpropyl]-4-methylphenol] | – | 6.6 ± 1.7 | – | 0.00471 | – | 2.7 ± 0.23 | Bladder capacity, % change from baseline (bladder capacity; mono-therapy 0.01 mg/kg iv, listed as TOL): 8.6%; Bladder capacity, % change from baseline (bladder capacity; mono-therapy 0.03 mg/kg iv, listed as TOL): 16.8%; Bladder capacity, % change from baseline (bladder capacity; mono-therapy 0.1 mg/kg iv): 40.3%
5 | CCN(CC)CC#CCOC(=O)C(O)(c1ccccc1)C1CCCCC1 (centres unmarked) [Oxybutynin, 4-diethylaminobut-2-ynyl2-cyclohexyl-2-hydroxy-2-phenyl-ethanoate] | – | – | – | – | 0.057 | – | –
6 | O=C(O[C@H]1CN2CCC1CC2)N1CCc2ccccc2[C@@H]1c1ccccc1 [Solifenacin] | 12 ± 4.4 | 110 ± 45 | 170 ± 37 | – | – | 26 ± 2 | M2/M3 ratio (muscarinic receptor M3 [1]): 14
